Laboratory results: the supplement of paper PMC11061612

Legend:
Assay in all cases: combination Emax (second highest fraction inhibited in the dose matrix, 72 h); higher = more inhibition; extreme values may be limits of the assay
[1] = system: SW948 (Colorectal Carcinoma)
Procedure, shortened: (§1)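 Cell lines in DMEM/F12 or RPMI with 10% FBS were plated in 1536-well plates, held 24 hours at 37°C, 5% CO2, then given two-drug dose matrices for 72 hours (DMSO typically 0.2%). Viability was read by CellTiter-Glo 2.0 luminescence and scaled as inhibition from 0 (vehicle wells) to 1 (blank wells). Combination Emax is the second-highest inhibition in the matrix; Bliss excess is observed combination effect minus expected EA + EB − EA·EB, EA and EB being single-agent effects.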

[2] = system: SNG-M (Endometrial Carcinoma)
Procedure, shortened: as §1

D-392MG (Glioblastoma) = system: D-392MG (Glioblastoma)
Procedure, shortened: as §1

[3] = system: PA-TU-8902 (Pancreatic Carcinoma)
Procedure, shortened: as §1

[4] = system: D-283MED (Other Solid Carcinomas)
Procedure, shortened: as §1

Saos-2 (Osteosarcoma) = system: Saos-2 (Osteosarcoma)
Procedure, shortened: as §1

[5] = system: HOP-92 (Non-Small Cell Lung Carcinoma)
Procedure, shortened: as §1

[6] = system: KG-1 (Acute Myeloid Leukemia)
Procedure, shortened: as §1

[7] = system: CAL-39 (Other Solid Carcinomas)
Procedure, shortened: as §1

[8] = system: HCC1143 (Breast Carcinoma)
Procedure, shortened: as §1

[9] = system: YT (Other Blood Carcinomas)
Procedure, shortened: as §1

[10] = system: NCI-H1688 (Small Cell Lung Carcinoma)
Procedure, shortened: as §1

[11] = system: HCT-116 (Colorectal Carcinoma)
Procedure, shortened: as §1

H4 (Low Grade Glioma) = system: H4 (Low Grade Glioma)
Procedure, shortened: as §1

[12] = system: ETK-1 (Biliary Tract Carcinoma)
Procedure, shortened: as §1

MCF7 (Breast Carcinoma) = system: MCF7 (Breast Carcinoma)
Procedure, shortened: as §1

[13] = system: U-118-MG (Low Grade Glioma)
Procedure, shortened: as §1

[14] = system: HLE (Hepatocellular Carcinoma)
Procedure, shortened: as §1

[15] = system: SNU-61 (Colorectal Carcinoma)
Procedure, shortened: as §1

[16] = system: TYK-nu (Ovarian Carcinoma)
Procedure, shortened: as §1

Row | Compound | combination Emax [1] | combination Emax [2] | combination Emax (D-392MG (Glioblastoma)) | combination Emax [3] | combination Emax [4] | combination Emax (Saos-2 (Osteosarcoma)) | combination Emax [5] | combination Emax [6] | combination Emax [7] | combination Emax [8] | combination Emax [9] | combination Emax [10] | combination Emax [11] | combination Emax (H4 (Low Grade Glioma)) | combination Emax [12] | combination Emax (MCF7 (Breast Carcinoma)) | combination Emax [13] | combination Emax [14] | combination Emax [15] | combination Emax [16]
1 | COc1nnc2ccc(N3CCC(c4ccc(OCCN5CCN(C)C(=O)[C@H]5C)cc4)CC3)nn12 [AZD5153] + CC1(C)CCC(CN2CCN(c3ccc(C(=O)NS(=O)(=O)c4ccc(NCC5CCOCC5)c([N+](=O)[O-])c4)c(Oc4cnc5[nH]ccc5c4)c3)CC2)=C(c2ccc(Cl)cc2)C1 [Venetoclax] (first compound max 1 µM, 7x7, partner max 1 µM) | 0.513 | 0.548 | 0.45 | 0.275 | 0.835 | 0.535 | 0.362 | 1 | 0.631 | 0.357 | 0.714 | 0.384 | 0.666 | 0.677 | 0.445 | 0.669 | 0.367 | 0.336 | 0.389 | 0.571
2 | COc1nnc2ccc(N3CCC(c4ccc(OCCN5CCN(C)C(=O)[C@H]5C)cc4)CC3)nn12 [AZD5153] + CCN(CCO)CCCOc1ccc2c(Nc3cc(CC(=O)Nc4cccc(F)c4)[nH]n3)ncnc2c1 [AZD2811] (first compound max 1 µM, 7x7, partner max 1 µM) | 0.65 | 0.502 | 0.456 | 0.323 | 0.9 | 0.601 | 0.402 | 0.789 | 0.691 | 0.431 | 0.666 | 0.389 | 0.759 | 0.668 | 0.463 | 0.653 | 0.362 | 0.521 | 0.429 | 0.657
3 | COc1nnc2ccc(N3CCC(c4ccc(OCCN5CCN(C)C(=O)[C@H]5C)cc4)CC3)nn12 [AZD5153] + C[C@@H]1COCCN1C2=NC(=NC(=C2)C3(CC3)[S@](=N)(=O)C)C4=C5C=CNC5=NC=C4 [AZD6738] (first compound max 1 µM, 7x7, partner max 10 µM) | 0.675 | 0.901 | 0.514 | 0.392 | 0.995 | 0.843 | 0.374 | 0.905 | 0.797 | 0.824 | 0.923 | 0.633 | 0.88 | 0.796 | 0.717 | 0.747 | 0.611 | 0.689 | 0.544 | 0.803
4 | COc1nnc2ccc(N3CCC(c4ccc(OCCN5CCN(C)C(=O)[C@H]5C)cc4)CC3)nn12 [AZD5153] + Cc1c2c(nn1C)CSCc1cc(n(C)n1)CSc1cc(c3ccccc3c1)OCCCc1c(C(=O)O)n(C)c3c-2c(Cl)ccc13 [AZD5991] (first compound max 1 µM, 7x7, partner max 1 µM) | 0.573 | 0.639 | 0.541 | 0.345 | 0.979 | 0.835 | 0.386 | 1 | 0.905 | 0.565 | 1 | 0.647 | 0.716 | 0.888 | 0.513 | 0.769 | 0.352 | 0.626 | 0.452 | 0.646
5 | COc1nnc2ccc(N3CCC(c4ccc(OCCN5CCN(C)C(=O)[C@H]5C)cc4)CC3)nn12 [AZD5153] + Cn1cnc2c(F)c(Nc3ccc(Br)cc3Cl)c(C(=O)NOCCO)cc21 [Selumetinib] (first compound max 1 µM, 7x7, partner max 10 µM) | 0.752 | 0.632 | 0.569 | 0.527 | 0.849 | 0.516 | 0.556 | 0.817 | 0.827 | 0.513 | 0.693 | 0.384 | 0.866 | 0.699 | 0.463 | 0.704 | 0.362 | 0.341 | 0.69 | 0.755
6 | Cc1c2c(nn1C)CSCc1cc(n(C)n1)CSc1cc(c3ccccc3c1)OCCCc1c(C(=O)O)n(C)c3c-2c(Cl)ccc13 [AZD5991] + C1CN(CCC1(C(=O)N[C@@H](CCO)C2=CC=C(C=C2)Cl)N)C3=NC=NC4=C3C=CN4 [Capivasertib] (first compound max 1 µM, 7x7, partner max 3 µM) | 0.569 | 0.333 | 0.495 | 0.174 | 0.367 | 0.52 | 0.402 | 1 | 0.384 | 0.252 | 1 | 0.322 | 0.24 | 0.495 | 0.254 | 0.687 | 0.289 | 0.279 | 0.117 | 0.36
7 | Cc1c2c(nn1C)CSCc1cc(n(C)n1)CSc1cc(c3ccccc3c1)OCCCc1c(C(=O)O)n(C)c3c-2c(Cl)ccc13 [AZD5991] + C=CCn1c(=O)c2cnc(Nc3ccc(N4CCN(C)CC4)cc3)nc2n1-c1cccc(C(C)(C)O)n1 [AZD1775] (first compound max 1 µM, partner max 1 µM) | 0.714 | 0.733 | 0.417 | 0.31 | 0.971 | 0.801 | 0.807 | 1 | 0.677 | 0.797 | 0.998 | 0.601 | 0.641 | 0.9 | 0.59 | 0.652 | 0.339 | 0.849 | 0.49 | 0.761
8 | Cc1c2c(nn1C)CSCc1cc(n(C)n1)CSc1cc(c3ccccc3c1)OCCCc1c(C(=O)O)n(C)c3c-2c(Cl)ccc13 [AZD5991] + CC1(C)CCC(CN2CCN(c3ccc(C(=O)NS(=O)(=O)c4ccc(NCC5CCOCC5)c([N+](=O)[O-])c4)c(Oc4cnc5[nH]ccc5c4)c3)CC2)=C(c2ccc(Cl)cc2)C1 [Venetoclax] (first compound max 1 µM, 7x7, partner max 1 µM) | 0.236 | 0.209 | 0.791 | 0.139 | 0.639 | 0.534 | 0.44 | 1 | 0.292 | 0.252 | 1 | 0.702 | 0.163 | 0.726 | 0.152 | 0.745 | 0.196 | 0.287 | 0.155 | 0.233
9 | Cc1c2c(nn1C)CSCc1cc(n(C)n1)CSc1cc(c3ccccc3c1)OCCCc1c(C(=O)O)n(C)c3c-2c(Cl)ccc13 [AZD5991] + CCN(CCO)CCCOc1ccc2c(Nc3cc(CC(=O)Nc4cccc(F)c4)[nH]n3)ncnc2c1 [AZD2811] (first compound max 1 µM, 7x7, partner max 1 µM) | 0.587 | 0.345 | 0.403 | 0.212 | 0.639 | 0.816 | 0.689 | 1 | 0.815 | 0.371 | 1 | 0.314 | 0.438 | 0.586 | 0.294 | 0.692 | 0.342 | 0.579 | 0.254 | 0.534
10 | Cc1c2c(nn1C)CSCc1cc(n(C)n1)CSc1cc(c3ccccc3c1)OCCCc1c(C(=O)O)n(C)c3c-2c(Cl)ccc13 [AZD5991] + CN(C)CCCOc1ccc(-c2ccc3ncc4c(c3c2)n(C2CCOCC2)c(=O)n4C)cn1 [AZD0156] (first compound max 1 µM, 7x7, partner max 1 µM) | 0.296 | 0.209 | 0.252 | 0.192 | 0.36 | 0.239 | 0.41 | 1 | 0.515 | 0.364 | 1 | 0.276 | 0.265 | 0.448 | 0.26 | 0.612 | 0.27 | 0.39 | 0.196 | 0.397
11 | Cc1c2c(nn1C)CSCc1cc(n(C)n1)CSc1cc(c3ccccc3c1)OCCCc1c(C(=O)O)n(C)c3c-2c(Cl)ccc13 [AZD5991] + C[C@@H]1COCCN1C2=NC(=NC(=C2)C3(CC3)[S@](=N)(=O)C)C4=C5C=CNC5=NC=C4 [AZD6738] (first compound max 1 µM, 7x7, partner max 10 µM) | 0.563 | 0.88 | 0.427 | 0.26 | 0.992 | 0.6 | 0.723 | 1 | 0.645 | 0.827 | 1 | 0.47 | 0.63 | 0.813 | 0.658 | 0.776 | 0.506 | 0.802 | 0.349 | 0.74
12 | Cc1c2c(nn1C)CSCc1cc(n(C)n1)CSc1cc(c3ccccc3c1)OCCCc1c(C(=O)O)n(C)c3c-2c(Cl)ccc13 [AZD5991] + Cc1cc2ncnn2cc1Nc1ncc2c(n1)n(C1CCOCC1)c(=O)n2C [AZD7648] (first compound max 1 µM, 7x7, partner max 10 µM) | 0.436 | 0.299 | 0.271 | 0.321 | 0.435 | 0.285 | 0.448 | 1 | 0.58 | 0.267 | 1 | 0.297 | 0.311 | 0.378 | 0.294 | 0.665 | 0.425 | 0.515 | 0.19 | 0.412
